The assay is described as follows: Binding affinity opioid receptor.

This passage reports IC50 results from BindingDB's records for doi:10.1021/jm00038a004 (University of Arizona, 1994).

By IC50 is commonly meant the concentration at which inhibition is half-maximal. The low end stands for higher potency, the high end for lower potency.

`Cc1cc(O)cc(C)c1[C@H](C)[C@H](N)C(=O)N[C@H](C)C(=O)N[C@@H](Cc1ccccc1)C(=O)N[C@@H](CC(=O)O)C(=O)N[C@H](C(=O)N[C@H](C(=O)NCC(N)=O)C(C)C)C(C)C` [(S)-3-((S)-2-{(R)-2-[(2S,3S)-2-Amino-3-(4-hydroxy-2,6-dimethyl-phenyl)-butyrylamino]-propionylamino}-3-phenyl-propionylamino)-N-{(S)-1-[(S)-1-(carbamoylmethyl-carbamoyl)-2-methyl-propylcarbamoyl]-2-methyl-propyl}-succinamic acid] gave an IC50 of 17.1 µM.
To `Cc1cc(O)cc(C)c1[C@H](C)[C@H](N)C(=O)N[C@H]1C(=O)NCC(=O)N[C@@H](Cc2ccccc2)C(=O)N[C@@H](C(=O)O)C(C)(C)SSC1(C)C` [(4S,7S,13S)-13-[(2S,3S)-2-Amino-3-(4-hydroxy-2,6-dimethyl-phenyl)-butyrylamino]-7-benzyl-3,3,14,14-tetramethyl-6,9,12-trioxo-1,2-dithia-5,8,11-triaza-cyclotetradecane-4-carboxylic acid] belongs 0.722 µM.
